Test results as given in patent publication US20210122763A1, “OGA INHIBITOR COMPOUNDS” (Janssen Pharmaceutica NV, priority 2018, published 2021).

What was measured:
[1] = target: T1, recombinant human Meningioma Expressed Antigen 5 (MGEA5), also referred to as O-GlcNAcase (OGA) (Homo sapiens, UniProt O60502); test: OGA biochemical assay (inhibition of FM-GlcNAc hydrolysis, fluorescence); conditions: for Emax: read-out: Enzymatic Emax (%); for IC50: read-out: Enzymatic hOGA, pIC50 (converted)
T1 construct: Full length OGA enzyme was purchased at OriGene (cat #TP322411); purchased OriGene TP322411
T1 sequence (O60502 1-916): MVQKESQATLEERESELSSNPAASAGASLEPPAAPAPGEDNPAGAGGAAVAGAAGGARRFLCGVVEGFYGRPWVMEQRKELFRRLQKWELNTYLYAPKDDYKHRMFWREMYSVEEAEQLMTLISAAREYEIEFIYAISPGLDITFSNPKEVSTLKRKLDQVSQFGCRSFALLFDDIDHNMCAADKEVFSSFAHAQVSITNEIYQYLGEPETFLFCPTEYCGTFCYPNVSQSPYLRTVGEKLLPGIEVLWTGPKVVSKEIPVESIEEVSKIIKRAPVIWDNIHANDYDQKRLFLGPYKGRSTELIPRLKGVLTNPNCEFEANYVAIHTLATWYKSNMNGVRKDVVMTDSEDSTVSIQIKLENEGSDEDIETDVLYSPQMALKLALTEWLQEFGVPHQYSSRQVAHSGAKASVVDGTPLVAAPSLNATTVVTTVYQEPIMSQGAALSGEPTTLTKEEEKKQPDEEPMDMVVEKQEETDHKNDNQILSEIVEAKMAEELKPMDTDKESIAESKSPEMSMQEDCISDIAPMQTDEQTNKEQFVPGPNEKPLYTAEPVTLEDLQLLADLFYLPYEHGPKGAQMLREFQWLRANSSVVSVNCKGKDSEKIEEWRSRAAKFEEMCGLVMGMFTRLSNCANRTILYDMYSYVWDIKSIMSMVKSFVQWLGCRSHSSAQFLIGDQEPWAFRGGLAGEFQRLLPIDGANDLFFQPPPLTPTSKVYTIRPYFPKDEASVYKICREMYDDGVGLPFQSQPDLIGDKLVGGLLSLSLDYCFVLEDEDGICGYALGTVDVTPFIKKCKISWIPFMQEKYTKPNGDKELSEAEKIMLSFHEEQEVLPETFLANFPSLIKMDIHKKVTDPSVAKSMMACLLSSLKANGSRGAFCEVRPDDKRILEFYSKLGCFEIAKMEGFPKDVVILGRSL
Excerpt: The assay is based on the inhibition of the hydrolysis of fluorescein mono-B-D-N-Acetyl-Glucosamine (FM-GcNAc) (Mariappa et al. 2015, Biochem J470:255) by the recombinant human Meningioma Expressed Antigen 5 (MGEA5), also referred to as O-GlcNAcase (OGA). The hydrolysis FM-GlcNAc (Marker Gene technologies, cat #M1485) results in the formation of B-D-N-glucosamineacetate and fluorescein. The fluorescence of the latter can be measured at excitation wavelength 485 nm and emission wavelength 538 nm. An increase in enzyme activity results in anincrease in fluorescence signal. Full length OGA enzyme was purchased at OriGene (cat #TP322411). The enzyme was stored in 25 mM Tris.HCl, pH 7.3, 100 mM glycine, 10% glycerol at −20° C. Thiamet G and GlcNAcStatin were tested as reference compounds (Yuzwa et al. 2008 Nature Chemical Biology 4:483; Yuzwa et al. 2012 Nature Chemical Biology 8:393). The assay was performed in 200 mM Citrate/phosphate buffer supplemented with 0.005% Tween-20. 35.6 g Na2HPO4 2H2O (Sigma, #C0759) were dissolved in 1 L water to obtain a 200 mM solution. 19.2 g citric acid (Merck, #1.06580) was dissolved in 1 L water to obtain a 100 mM solution. pH of the sodiumphosphate solution was adjusted with the citric acid solution to 7.2. The buffer to stop the reaction consists of a 500 mM Carbonate buffer, pH 11.0. 734 mg FM-GlcNAc were dissolved in 5.48 mL DMSO to obtain a 250 mM solution and was stored at −20° C. OGA was used at a 2 nM concentration and FM-GcNAc at a 100 uM final concentration. Dilutions were prepared in assay buffer.
50 nl of a compound dissolved in DMSO was dispensed on Black Proxiplate™ 384 Plus Assay plates (Perkin Elmer, #6008269) and 3 μl fl-OGA enzyme mix added subsequently. Plates were pre-incubated for 60 min at room temperature and then 2 μl FM-GlcNAc substrate mix added.
Plates were briefly centrifuged for 1 min at 1000 rpm and incubate at room temperature for 6 h. To stop the reaction 5 μl STOP buffer were added and plates centrifuge again 1 min at 1000 rpm. Fluorescence was quantified in the Thermo Scientific Fluoroskan Ascent or the PerkinElmer EnVision with excitation wavelength 485 nm and emission wavelength 538 nm.
For analysis a best-fit curve is fitted by a minimum sum of squares method. From this an IC50 value and Hill coefficient was obtained. High control (no inhibitor) and low control (saturating concentrations of standard inhibitor) were used to define the minimum and maximum values.

OGA = target: T2, OGA (Homo sapiens, UniProt O60502); test: OGA cellular assay (ICC detection of O-GlcNAcylated proteins in HEK293 cells inducible for P301L mutant human Tau); format: cell-based; conditions: 6 hours incubation; for Emax: HEK293, HEK293 cells inducible for P301L mutant human Tau; for EC50: read-out: Cellular hOGA, pEC50 (converted)
T2 construct: HEK293 cells inducible for P301L mutant human Tau (isoform 2N4R) were established at Janssen; endogenous in cells; host or cells: HEK293 cells inducible for P301L mutant human Tau (2N4R)
T2 sequence (O60502 1-916): T1 sequence (O60502 1-916)
Procedure: HEK293 cells inducible for P301L mutant human Tau (isoform 2N4R) were established at Janssen. Thiamet-G was used for both plate validation (high control) and as reference compound (reference EC50 assay validation). OGA inhibition is evaluated through the immunocytochemical (ICC) detection of O-GlcNAcylated proteins by the use of a monoclonal antibody (CTD110.6; Cell Signaling, #9875) detecting 0-GlcNAcylated residues as previously described (Dorfmueller et al. 2010 Chemistry & biology, 17:1250). Inhibition of OGA will result in an increase of 0-GlcNAcylated protein levels resulting in an increased signal in the experiment. Cell nuclei are stained with Hoechst to give a cell culture quality control and a rough estimate of immediate compounds toxicity, if any. ICC pictures are imaged with a Perkin Elmer Opera Phenix plate microscope and quantified with the provided software Perkin Elmer Harmony 4.1.
Cells were propagated in DMEM high Glucose (Sigma, #D5796) following standard procedures. 2 days before the cell assay cells are split, counted and seeded in Poly-D-Lysine (PDL) coated 96-wells (Greiner, #655946) plate at a cell density of 12,000 cells per cm^2 (4,000 cells per well) in 100p of Assay Medium (Low Glucose medium is used to reduce basal levels of GlcNAcylation) (Park et al. 2014 The Journal of biological chemistry 289:13519). At the day of compound test medium from assay plates was removed and replenished with 90 μl of fresh Assay Medium. 10 μl of compounds at a 10 fold final concentration were added to the wells. Plates were centrifuged shortly before incubation in the cell incubator for 6 hours. DMSO concentration was set to 0.2%. Medium is discarded by applying vacuum. For staining of cells medium was removed and cells washed once with 100 μl D-PBS (Sigma, #D8537). From next step onwards unless other stated assay volume was always 50p and incubation was performed without agitation and at room temperature. Cells were fixed in 50 μl of a 4% paraformaldehyde (PFA, Alpha aesar, #043368) PBS solution for 15 minutes at room temperature. […] Before analysis samples were washed 2 times manually for 5 minutes in ICC base buffer.
Imaging is performed using Perkin Elmer Phenix Opera using a water 20× objective and recording 9 fields per well. Intensity readout at 488 nm is used as a measure of O-GlcNAcylation level of total proteins in wells. To assess potential toxicity of compounds nuclei were counted using the Hoechst staining. IC50-values are calculated using parametric non-linear regression model fitting. As a maximum inhibition Thiamet G at a 200 uM concentration is present on each plate. In addition, a concentration response of Thiamet G is calculated on each plate.

[2] = HEK293 cells inducible for P301L mutant human Tau

Emax [1] [%] | IC50 [1] [nM] | Emax (OGA; maximum = Thiamet G 200 uM) [%] | EC50 (OGA; [2]) [nM] | Enzymatic Emax (%) [1] [%] | Cellular Emax (%) (OGA; HEK293 cells inducible for P301L mutant human Tau, maximum = Thiamet G 200 uM) | SMILES
100 | 39.8 | 61 | 316 |  |  | Cc1cc(OC2CCN(C(C)c3ccc4c(n3)OCCO4)CC2)cc(C(F)(F)F)n1 (stereo not shown) [Compound 17]
98 | 100 | 59 | 501 |  |  | Cc1cc(C)c(OC2CCN(C(C)c3nc4c(cc3F)OCCO4)CC2)nn1 (stereo not shown) [Compound 88]
100 | 50.1 | 73 | 631 |  |  | Cc1cc(OC2CCN(C(C)c3ccc4c(n3)OCCO4)CC2)nc(C)n1 (single isomer, unassigned) [Compound 10]
95 | 31.6 | 67 | 200 |  |  | COc1cc(OC2CCN(C(C)c3nc4c(cc3F)OCCO4)CC2)ncc1C#N (stereo not shown) [Compound 153]
96 | 25.1 | 81 | 200 |  |  | Cc1cc(OC2CCN([C@@H](C)c3ccc4c(n3)OCCO4)CC2)cc(C(F)(F)F)n1 (single isomer, unassigned) [Compound 147]
99 | 12.6 | 101 | 63.1 |  |  | Cc1cc(OC2CCN(C(C)c3nc4c(cc3F)OCCO4)CC2)c(Cl)c(C)n1 (stereo not shown) [Compound 65]
97 | 398 | 16 | > 1000 |  |  | CC(c1ccc2c(n1)OCCO2)N1CCC(Oc2ncc(C#N)cc2F)CC1 (stereo not shown) [Compound 105]
86 | 1580 | 8 | > 1000 |  |  | Cc1cc(OC2CCN([C@@H](C)c3nc4c(cc3F)CCO4)CC2)cc(C)n1 (single isomer, unassigned) [Compound 145]
 | 50.1 |  | 251 | 103 | 83 | Cc1cc(OC2CCN(C(C)c3ccc4c(n3)OCCO4)CC2)cc(C)n1 (single isomer, unassigned) [Compound 3]
94 | 10 | 81 | 63.1 |  |  | COc1cc(COC2CCN(C(C)c3nc4c(cc3F)OCCO4)CC2)cc(C)n1 (stereo not shown) [Compound 134]

More lines, now with the values behind:

SMILES | Emax [1] [%] | IC50 [1] [nM] | Emax (OGA; maximum = Thiamet G 200 uM) [%] | EC50 (OGA; [2]) [nM] | Enzymatic Emax (%) [1] [%] | Cellular Emax (%) (OGA; HEK293 cells inducible for P301L mutant human Tau, maximum = Thiamet G 200 uM)
CC(c1ccc2c(n1)OCCO2)N1CCC(Oc2ccc(C(F)(F)F)nc2)CC1 (stereo not shown) [Compound 68] | 94 | 79.4 | 57 | 794 |  | 
Cc1cc(OC2CCN([C@@H](C)c3ccc4c(n3)OCC4)CC2)cc(C)n1 (single isomer, unassigned) [Compound 62] | 90 | 1000 | 6 | > 1000 |  | 
CC(c1ccc2c(n1)OCCO2)N1CCC(Oc2cnc(Cl)nc2)CC1 (stereo not shown) [Compound 67] | 102 | 126 | 60 | 631 |  | 
Cc1cc(OC2CCN([C@H](C)c3ccc4c(n3)OCC4)CC2)cc(C)n1 (single isomer, unassigned) [Compound 61] | 95 | 15.8 | 87 | 79.4 |  | 
COc1cc(C#N)cnc1OC1CCN(C(C)c2ccc3c(n2)OCCO3)CC1 (stereo not shown) [Compound 102] | 95 | 501 | 10 | > 1000 |  | 
C[C@@H](c1ccc2c(n1)OCCO2)N1CCC(Oc2ccc(C(N)=O)nn2)CC1 (single isomer, unassigned) [Compound 106] | 95 | 126 | 48 | 631 |  | 
Cc1cc(OC2CCN(C(C)c3ccc4sc(C)nc4n3)CC2)c(Cl)c(C)n1 (stereo not shown) [Compound 27] | 99 | 100 | 76 | 501 |  | 
Cc1cncc(OC2CCN(C(C)c3ccc4c(n3)OCCO4)CC2)c1 (stereo not shown) [Compound 47] | 99 | 63.1 | 67 | 316 |  | 
Cc1cc(OC2(CF)CCN(C(C)c3ccc4c(n3)OCCO4)CC2)cc(C)n1 (stereo not shown) [Compound 132] | 63 | 6310 | 24 | > 1000 |  | 
CC(c1ccc2c(n1)OCCO2)N1CCC(Oc2cncc(F)c2)CC1 (stereo not shown) [Compound 74] | 99 | 100 | 44 | > 1000 |  | 
Cc1cc(CC2(F)CCN(C(C)c3ccc4c(n3)OCCO4)CC2)cc(C)n1 (stereo not shown) [Compound 73] | 90 | 2000 | 18 | > 1000 |  | 
COc1cc(OC2CCN(C(C)c3ccc4c(n3)OCCO4)CC2)ncc1C#N (stereo not shown) [Compound 103] | 97 | 79.4 | 52 |  |  | 
COc1nccnc1OC1CCN(C(C)c2ccc3c(n2)OCCO3)CC1 (stereo not shown) [Compound 108] | 101 | 631 | 15 | > 1000 |  | 
